Values quoted from earlier work in patent publication US20220225651A1, “STEVIOL GLYCOSIDE AND FERULIC ACID FORMULATIONS FOR FOOD AND BEVERAGES” (Sweegen, Inc., priority 2021, published 2022).

Settings: sweetness relative to sucrose

**Q.** With `C=C1C[C@@]23CC[C@H]4[C@@](C)(CCC[C@@]4(C)C(=O)O[C@@H]4O[C@H](CO)[C@@H](O)[C@H](O)[C@H]4O)[C@@H]2CC[C@]1(O[C@@H]1O[C@H](CO)[C@@H](O)[C@H](O)[C@H]1O[C@@H]1O[C@H](CO)[C@@H](O)[C@H](O)[C@H]1O)C3` [stevioside] as the molecule, how does the “times sweeter than sucrose” value read?
**A.** The value was 100-150 times.

**Q.** With `C=C1C[C@@]23CC[C@H]4[C@@](C)(CCC[C@@]4(C)C(=O)O[C@@H]4O[C@H](CO)[C@@H](O)[C@H](O)[C@H]4O)[C@@H]2CC[C@]1(O[C@@H]1O[C@H](CO)[C@@H](O)[C@H](O)[C@H]1O[C@@H]1O[C@@H](C)[C@H](O)[C@@H](O)[C@H]1O)C3` [Dulcoside A] as the molecule, how does the “times sweeter than sucrose” value read?
**A.** Its value is “about 30 times”.

**Q.** Which “times sweeter than sucrose” value does the source give for Rebaudioside C here?
**A.** The value was 40-60 times.
